For this test, the system named is P388 leukemia ip, CD2F1 mice, survival T/C. In words: NCI In Vivo Anticancer Drug Screen. Data for tumor model P388 Leukemia (intraperitoneal) in CD2F1 (CDF1) mice. The settings on record: endpoint: median survival time, higher = longer survival. A digest of the protocol:
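Mice carrying the transplanted tumor received test compound or vehicle. Survival was recorded in each group, and the value is the treated-group measurement divided by that of the vehicle-treated control group.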

[1] abbreviates: dose: 100.0 mg/kg/injection, schedule: Q04DX002 (ip), vehicle: saline with Tween-80.
[2] abbreviates: dose: 25.0 mg/kg/injection, schedule: Q01DX009 (ip), vehicle: saline with Tween-80.
Where [3] appears, read: dose: 50.0 mg/kg/injection, schedule: Q01DX009 (ip), vehicle: saline with Tween-80.
The mark [4] stands for this setting: dose: 60.0 mg/kg/injection, schedule: Q01DX005 (ip), vehicle: saline with Tween-80.
The mark [5] stands for this setting: dose: 120.0 mg/kg/injection, schedule: Q01DX005 (ip), vehicle: saline with Tween-80.
The mark [6] stands for this setting: dose: 240.0 mg/kg/injection, schedule: Q01DX005 (ip), vehicle: saline with Tween-80.
Setting [7] is: dose: 25.0 mg/kg/injection, schedule: Q01DX009 (ip), vehicle: saline.
The mark [8] stands for this setting: dose: 50.0 mg/kg/injection, schedule: Q01DX005 (ip), vehicle: saline with Tween-80.
Setting [9] is: dose: 100.0 mg/kg/injection, schedule: Q01DX005 (ip), vehicle: saline with Tween-80.
[10] abbreviates: dose: 10.0 mg/kg/injection, schedule: Q01DX009 (ip), vehicle: saline with Tween-80.
Where [11] appears, read: dose: 20.0 mg/kg/injection, schedule: Q01DX009 (ip), vehicle: saline with Tween-80.
The mark [12] stands for this setting: dose: 40.0 mg/kg/injection, schedule: Q01DX009 (ip), vehicle: saline with Tween-80.
Where [13] appears, read: dose: 25.0 mg/kg/injection, schedule: Q01DX005 (ip), vehicle: saline with Tween-80.

Several values for one entry are separate records, joined by “and”; a condition that tells them apart may be missing. Equal values may be shown once. Toxic doses and inconclusive results are not listed.

`Cn1c(CCC(=O)O)c(CC(=O)O)c2ccccc21`: the T/C under setting [1] was 99 % of control; the T/C (dose: 200.0 mg/kg/injection, schedule: Q04DX002 (ip), vehicle: saline with Tween-80) is 97 % of control; the T/C (dose: 400.0 mg/kg/injection, schedule: Q04DX002 (ip), vehicle: saline with Tween-80) was 108 % of control.

`NCCCN1c2ccccc2Sc2ccc(Cl)cc21`: the T/C is, setting by setting: under setting [2], 99 % of control and 90 % of control; under setting [3], 113 % of control and 120 % of control.

As for `O=C(CSC(c1ccccc1)(c1ccccc1)c1ccccc1)c1ccc([N+](=O)[O-])cc1`, the T/C runs as follows: (dose: 50.0 mg/kg/injection, schedule: Q01DX005 (ip), vehicle: Klucel (hydroxypropylcellulose) (HPC)) 100 % of control; (dose: 100.0 mg/kg/injection, schedule: Q01DX005 (ip), vehicle: Klucel (hydroxypropylcellulose) (HPC)) 105 % of control; (dose: 200.0 mg/kg/injection, schedule: Q01DX005 (ip), vehicle: Klucel (hydroxypropylcellulose) (HPC)) 95 % of control.

For the compound `C=C(C)C1CCC(C)CC(=O)C1` (stereo not drawn), the T/C runs as follows: (dose: 100.0 mg/kg/injection, schedule: Q04DX003 (ip), vehicle: saline + Tween-80 + alcohol) 100 % of control; (dose: 200.0 mg/kg/injection, schedule: Q04DX003 (ip), vehicle: saline + Tween-80 + alcohol) 91 % of control; (dose: 400.0 mg/kg/injection, schedule: Q04DX003 (ip), vehicle: saline + Tween-80 + alcohol) 91 % of control.

With `CCCCNC(=O)OCc1ccc(NCCN(CC)CC)c2c(=O)c3ccccc3sc12`, the T/C runs as follows: (dose: 1.56 mg/kg/injection, schedule: Q01DX005 (ip), vehicle: distilled water + Tween-80) 105 % of control and 97 % of control; (dose: 3.12 mg/kg/injection, schedule: Q01DX005 (ip), vehicle: distilled water + Tween-80) 102 % of control and 112 % of control and 119 % of control; (dose: 6.25 mg/kg/injection, schedule: Q01DX005 (ip), vehicle: distilled water + Tween-80) 101 % of control and 111 % of control.

For the compound `O=[N+]([O-])c1ccc(O)c(CNCCCl)c1`, the T/C was 95 % of control (dose: 25.0 mg/kg/injection, schedule: Q04DX002 (ip), vehicle: DMSO); 98 % of control (dose: 50.0 mg/kg/injection, schedule: Q04DX002 (ip), vehicle: DMSO); 89 % of control (dose: 100.0 mg/kg/injection, schedule: Q04DX002 (ip), vehicle: DMSO).

For the compound `C/C(=N\NC(=S)NC12CC3CC(CC(C3)C1)C2)c1ccccn1`, the T/C reads like this: (dose: 100.0 mg/kg/injection, schedule: Q04DX003 (ip), vehicle: saline with Tween-80) 113 % of control; (dose: 200.0 mg/kg/injection, schedule: Q04DX003 (ip), vehicle: saline with Tween-80) 104 % of control.

With `COc1cccc2c1oc1c3ccc(O)cc3oc(=O)c21`, the T/C (dose: 6.2 mg/kg/injection, schedule: Q01DX007 (ip), vehicle: carboxymethylcellulose (CMC)) is 91 % of control.

As to `CCC(=N/NC(=S)NCCN1CCCCC1)/C(CC)=N\NC(=S)NCCN1CCCCC1`, the T/C is 100 % of control (dose: 3.13 mg/kg/injection, schedule: Q01DX009 (ip), vehicle: saline with Tween-80) and 103 % of control (dose: 6.25 mg/kg/injection, schedule: Q01DX009 (ip), vehicle: saline with Tween-80).

On to `O=C(N/C(=C\c1cccc([N+](=O)[O-])c1)c1nc2ccccc2s1)c1ccccc1`, for which the T/C is, setting by setting: under setting [4], 107 % of control; under setting [5], 106 % of control; under setting [6], 110 % of control.

Take `COC1=C(Br)[C@H](O)[C@](O)(CC#N)C=C1Br`: the T/C (dose: 6.25 mg/kg/injection, schedule: Q01DX009 (ip), vehicle: saline) was 121 % of control; the T/C (dose: 8.75 mg/kg/injection, schedule: Q01DX009 (ip), vehicle: Klucel (hydroxypropylcellulose) (HPC)) is 119 % of control; the T/C (dose: 12.5 mg/kg/injection, schedule: Q01DX009 (ip), vehicle: saline) was 123 % of control; the T/C under setting [7] is 118 % of control.

As to `[CH3][Sn]([CH3])([CH3])[Cl]`, the T/C by setting is: (dose: 0.19 mg/kg/injection, schedule: Q01DX009 (ip), vehicle: saline) 100 % of control; (dose: 0.39 mg/kg/injection, schedule: Q01DX009 (ip), vehicle: saline) 97 % of control; (dose: 0.78 mg/kg/injection, schedule: Q01DX009 (ip), vehicle: saline) 101 % of control.

`CCOC(=O)c1ccc(N=Cc2cccc([N+](=O)[O-])c2)cc1`: the T/C under setting [4] was 91 % of control, the T/C under setting [5] is 89 % of control and the T/C under setting [6] was 90 % of control.

As for `Cc1cccc(N2CCN(c3ccc4nonc4c3[N+](=O)[O-])CC2)c1`, the T/C is 98 % of control (dose: 50.0 mg/kg/injection, schedule: Q01DX009 (ip), vehicle: suspension in saline); 92 % of control and 95 % of control (dose: 100.0 mg/kg/injection, schedule: Q01DX009 (ip), vehicle: suspension in saline); 89 % of control and 90 % of control (dose: 200.0 mg/kg/injection, schedule: Q01DX009 (ip), vehicle: suspension in saline).

For the compound `CN(Cc1cccc2ccccc12)Cc1cccc2ccccc12`, the T/C reads like this: under setting [8], 86 % of control; under setting [9], 89 % of control.

With `Nc1cc(=O)n(Cc2ccccc2)c(N)c1C(=O)NCc1ccccc1`, the T/C by setting is: under setting [4], 106 % of control; under setting [5], 98 % of control; under setting [6], 100 % of control.

On to `COc1cc2c3c(c1O)-c1cc4c(cc1CC3N(C)CC2)OCO4` (stereo not drawn), for which the T/C is, setting by setting: under setting [10], 102 % of control; under setting [11], 104 % of control; under setting [12], 98 % of control; under setting [1], 97 % of control.

Consider `CCC1(CC(=O)O)OCCc2c1[nH]c1c(C)c(Cl)ccc21` (stereo not drawn), for which the T/C was 101 % of control (dose: 50.0 mg/kg/injection, schedule: Q01DX001 (ip), vehicle: Klucel (hydroxypropylcellulose) (HPC)); 101 % of control (dose: 100.0 mg/kg/injection, schedule: Q01DX001 (ip), vehicle: Klucel (hydroxypropylcellulose) (HPC)); 100 % of control (dose: 200.0 mg/kg/injection, schedule: Q01DX001 (ip), vehicle: Klucel (hydroxypropylcellulose) (HPC)).

As to `CCOC(=O)N1C=CC(C2C=CN(C(=O)OCC)C=C2)C=C1`, the T/C reads like this: under setting [10], 111 % of control; under setting [11], 96 % of control; under setting [12], 105 % of control.

`O=[N+]1C=Cc2ccccc2C1=C1c2ccccc2C=CN1[O-]`: the T/C runs as follows: under setting [13], 101 % of control; under setting [8], 97 % of control; under setting [9], 103 % of control.

Regarding `CCCCCCC1CC2CCCCN2O1` (stereo not drawn), the T/C by setting is: (dose: 40.0 mg/kg/injection, schedule: Q01DX009 (ip), vehicle: Klucel (hydroxypropylcellulose) (HPC)) 113 % of control; (dose: 80.0 mg/kg/injection, schedule: Q01DX009 (ip), vehicle: Klucel (hydroxypropylcellulose) (HPC)) 107 % of control; (dose: 160.0 mg/kg/injection, schedule: Q01DX009 (ip), vehicle: Klucel (hydroxypropylcellulose) (HPC)) 119 % of control.

For the compound `COC(=O)[C@]1(O)Cc2c(O)c3c(c(O)c2[C@@H](OC2CC(N)C(O)C(C)O2)C1)C(=O)c1c(OC)cccc1C3=O` (stereo partly drawn), the T/C (dose: 1.56 mg/kg/injection, schedule: Q01DX009 (ip), vehicle: water) is 110 % of control; the T/C (dose: 3.13 mg/kg/injection, schedule: Q01DX009 (ip), vehicle: water) is 108 % of control; the T/C (dose: 6.25 mg/kg/injection, schedule: Q01DX009 (ip), vehicle: water) is 109 % of control and 114 % of control; the T/C (dose: 12.5 mg/kg/injection, schedule: Q01DX009 (ip), vehicle: water) is 116 % of control and 118 % of control; the T/C (dose: 25.0 mg/kg/injection, schedule: Q01DX009 (ip), vehicle: water) was 116 % of control.

As for `NC(N)=N/N=C/c1ccc(Cl)cc1Cl`, the T/C under setting [7] is 104 % of control and the T/C (dose: 50.0 mg/kg/injection, schedule: Q01DX009 (ip), vehicle: saline) was 106 % of control.

Consider `O=[N+]([O-])c1ccc([I+]c2ccccc2)cc1`, for which the T/C is, setting by setting: (dose: 12.5 mg/kg/injection, schedule: Q01DX009 (ip), vehicle: saline with Tween-80) 154 % of control; under setting [13], 120 % of control and 124 % of control; under setting [2], 153 % of control; under setting [3], 153 % of control; under setting [4], 98 % of control; under setting [9], 88 % of control.

On to `C=Cc1ccc(NC(=O)CC2SC(=O)NC2=O)cc1` (stereo not drawn), for which the T/C runs as follows: under setting [8], 103 % of control; under setting [9], 97 % of control; (dose: 200.0 mg/kg/injection, schedule: Q01DX005 (ip), vehicle: saline with Tween-80) 103 % of control.

As for `Cc1ccc(C(C#N)C(=O)CCCC(=O)Nc2ccc(C)c(C)c2)cc1` (stereo not drawn), the T/C was 109 % of control under setting [4], 100 % of control under setting [5] and 100 % of control under setting [6].

For the origin of these results see PubChem BioAssay AID330 (DTP/NCI, 2004).
